Assay results taken from publication PMC9506414, “Novel 2,6,9-Trisubstituted Purines as Potent CDK Inhibitors Alleviating Trastuzumab-Resistance of HER2-Positive Breast Cancers” (Pharmaceuticals, 2022).

What was measured:
Test in all cases: Kinome-wide inhibition profiling
Assay type in all cases: biochemical
LYN = target: T1, LYN (Homo sapiens, UniProt P07948)
T1 construct: purchased Reaction Biology Corp
Protocol: (§1) In vitro CDK12/cyclinK assays for all compounds and in vitro kinome-wide inhibition profiling of 30d at 10 μM were performed by a CRO company (Reaction Biology Corp., San Diego, CA, USA).

SRPK2 = target: T2, SRPK2 (Homo sapiens, UniProt P78362)
T2 construct: purchased Reaction Biology Corp
Protocol: as §1

NEK4 = target: T3, NEK4 (Homo sapiens, UniProt P51957)
T3 construct: purchased Reaction Biology Corp
Protocol: as §1

TAOK3 = target: T4, TAOK3 (Homo sapiens, UniProt Q9H2K8)
T4 construct: purchased Reaction Biology Corp
Protocol: as §1

GRK6 = target: T5, GRK6 (Homo sapiens, UniProt P43250)
T5 construct: purchased Reaction Biology Corp
Protocol: as §1

DYRK4 = target: T6, DYRK4 (Homo sapiens, UniProt Q9NR20)
T6 construct: purchased Reaction Biology Corp
Protocol: as §1

CAMKK1 = target: T7, CAMKK1 (Homo sapiens, UniProt Q8N5S9)
T7 construct: purchased Reaction Biology Corp
Protocol: as §1

BLK = target: T8, BLK (Homo sapiens, UniProt P51451)
T8 construct: purchased Reaction Biology Corp
Protocol: as §1

MEKK6 = target: T9, MEKK6 (Homo sapiens, UniProt O95382)
T9 construct: purchased Reaction Biology Corp
Protocol: as §1

MAP4K2 = target: T10, MAP4K2 (Homo sapiens, UniProt Q12851)
T10 construct: purchased Reaction Biology Corp
Protocol: as §1

EPHA6 = target: T11, EPHA6 (Homo sapiens, UniProt Q9UF33)
T11 construct: purchased Reaction Biology Corp
Protocol: as §1

MLK3 = target: T12, MLK3 (Homo sapiens, UniProt Q16584)
T12 construct: purchased Reaction Biology Corp
Protocol: as §1

MELK = target: T13, MELK (Homo sapiens, UniProt Q14680)
T13 construct: purchased Reaction Biology Corp
Protocol: as §1

BMPR1A = target: T14, BMPR1A (Homo sapiens, UniProt P36894)
T14 construct: purchased Reaction Biology Corp
Protocol: as §1

CAMK4 = target: T15, CAMK4 (Homo sapiens, UniProt Q16566)
T15 construct: purchased Reaction Biology Corp
Protocol: as §1

DYRK3 = target: T16, DYRK3 (Homo sapiens, UniProt O43781)
T16 construct: purchased Reaction Biology Corp
Protocol: as §1

FLT1 = target: T17, FLT1 (Homo sapiens, UniProt P17948)
T17 construct: purchased Reaction Biology Corp
Protocol: as §1

EPHA2 = target: T18, EPHA2 (Homo sapiens, UniProt P29317)
T18 construct: purchased Reaction Biology Corp
Protocol: as §1

DAPK3 = target: T19, DAPK3 (Homo sapiens, UniProt O43293)
T19 construct: purchased Reaction Biology Corp
Protocol: as §1

ARK5 = target: T20, ARK5 (Homo sapiens, UniProt O60285)
T20 construct: purchased Reaction Biology Corp
Protocol: as §1

SGK2 = target: T21, SGK2 (Homo sapiens, UniProt Q9HBY8)
T21 construct: purchased Reaction Biology Corp
Protocol: as §1

ITK = target: T22, ITK (Homo sapiens, UniProt Q08881)
T22 construct: purchased Reaction Biology Corp
Protocol: as §1

MST1 = target: T23, MST1 (Homo sapiens, UniProt Q13043)
T23 construct: purchased Reaction Biology Corp
Protocol: as §1

SIK2 = target: T24, SIK2 (Homo sapiens, UniProt Q9H0K1)
T24 construct: purchased Reaction Biology Corp
Protocol: as §1

PRKX = target: T25, PRKX (Homo sapiens, UniProt P51817)
T25 construct: purchased Reaction Biology Corp
Protocol: as §1

ERBB2 = target: T26, ERBB2 (Homo sapiens, UniProt P04626)
T26 construct: purchased Reaction Biology Corp
Protocol: as §1

MYO3b = target: T27, MYO3b (Homo sapiens, UniProt Q8WXR4)
T27 construct: purchased Reaction Biology Corp
Protocol: as §1

LATS2 = target: T28, LATS2 (Homo sapiens, UniProt Q9NRM7)
T28 construct: purchased Reaction Biology Corp
Protocol: as §1

DYRK2 = target: T29, DYRK2 (Homo sapiens, UniProt Q92630)
T29 construct: purchased Reaction Biology Corp
Protocol: as §1

CDK9/cyclinT1 = target: T30, CDK9/cyclinT1 (Homo sapiens, UniProt P50750)
T30 construct: purchased Reaction Biology Corp
Protocol: as §1

MAP4K4 = target: T31, MAP4K4 (Homo sapiens, UniProt O95819)
T31 construct: purchased Reaction Biology Corp
Protocol: as §1

MNK1 = target: T32, MNK1 (Homo sapiens, UniProt Q9BUB5)
T32 construct: purchased Reaction Biology Corp
Protocol: as §1

MST3 = target: T33, MST3 (Homo sapiens, UniProt Q9Y6E0)
T33 construct: purchased Reaction Biology Corp
Protocol: as §1

AKT1 = target: T34, AKT1 (Homo sapiens, UniProt P31749)
T34 construct: purchased Reaction Biology Corp
Protocol: as §1

HIPK1 = target: T35, HIPK1 (Homo sapiens, UniProt Q86Z02)
T35 construct: purchased Reaction Biology Corp
Protocol: as §1

CAMK2a = target: T36, CAMK2a (Homo sapiens, UniProt Q9UQM7)
T36 construct: purchased Reaction Biology Corp
Protocol: as §1

ERBB4 = target: T37, ERBB4 (Homo sapiens, UniProt Q15303)
T37 construct: purchased Reaction Biology Corp
Protocol: as §1

PRKD1 = target: T38, PRKD1 (Homo sapiens, UniProt Q15139)
T38 construct: purchased Reaction Biology Corp
Protocol: as §1

LTK = target: T39, LTK (Homo sapiens, UniProt P29376)
T39 construct: purchased Reaction Biology Corp
Protocol: as §1

RSK3 = target: T40, RSK3 (Homo sapiens, UniProt Q15349)
T40 construct: purchased Reaction Biology Corp
Protocol: as §1

STK16 = target: T41, STK16 (Homo sapiens, UniProt O75716)
T41 construct: purchased Reaction Biology Corp
Protocol: as §1

CAMK2b = target: T42, CAMK2b (Homo sapiens, UniProt Q13554)
T42 construct: purchased Reaction Biology Corp
Protocol: as §1

FAK = target: T43, FAK (Homo sapiens, UniProt Q05397)
T43 construct: purchased Reaction Biology Corp
Protocol: as §1

AKT2 = target: T44, AKT2 (Homo sapiens, UniProt P31751)
T44 construct: purchased Reaction Biology Corp
Protocol: as §1

T11 sequence (Q9UF33 23-1036): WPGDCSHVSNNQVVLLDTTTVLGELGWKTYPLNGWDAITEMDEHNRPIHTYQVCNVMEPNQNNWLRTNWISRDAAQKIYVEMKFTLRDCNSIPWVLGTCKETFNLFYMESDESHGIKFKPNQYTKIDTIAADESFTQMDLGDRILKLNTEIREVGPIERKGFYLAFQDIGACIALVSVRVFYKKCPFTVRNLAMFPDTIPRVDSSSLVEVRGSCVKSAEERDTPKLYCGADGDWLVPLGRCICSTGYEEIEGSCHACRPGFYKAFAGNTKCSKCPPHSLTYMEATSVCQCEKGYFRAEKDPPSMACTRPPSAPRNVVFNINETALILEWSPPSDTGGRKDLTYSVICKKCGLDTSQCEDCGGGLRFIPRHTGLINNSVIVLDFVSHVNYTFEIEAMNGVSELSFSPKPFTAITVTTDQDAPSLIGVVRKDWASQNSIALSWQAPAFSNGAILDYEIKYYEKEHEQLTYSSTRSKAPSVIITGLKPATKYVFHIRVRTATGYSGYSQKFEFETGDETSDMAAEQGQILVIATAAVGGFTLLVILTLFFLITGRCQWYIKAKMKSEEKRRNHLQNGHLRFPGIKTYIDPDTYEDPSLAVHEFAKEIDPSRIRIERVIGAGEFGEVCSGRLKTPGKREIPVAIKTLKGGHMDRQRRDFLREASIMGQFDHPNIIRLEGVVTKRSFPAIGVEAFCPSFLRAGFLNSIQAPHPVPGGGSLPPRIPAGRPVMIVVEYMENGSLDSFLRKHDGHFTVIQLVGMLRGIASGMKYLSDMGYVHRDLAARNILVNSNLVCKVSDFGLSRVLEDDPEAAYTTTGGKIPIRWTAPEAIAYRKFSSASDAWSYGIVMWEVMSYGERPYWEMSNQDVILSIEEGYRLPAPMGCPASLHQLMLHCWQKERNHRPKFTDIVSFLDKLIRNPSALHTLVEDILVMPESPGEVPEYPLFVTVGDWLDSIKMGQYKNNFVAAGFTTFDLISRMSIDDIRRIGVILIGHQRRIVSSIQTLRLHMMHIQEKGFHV
T30 sequence (P50750 whole entry): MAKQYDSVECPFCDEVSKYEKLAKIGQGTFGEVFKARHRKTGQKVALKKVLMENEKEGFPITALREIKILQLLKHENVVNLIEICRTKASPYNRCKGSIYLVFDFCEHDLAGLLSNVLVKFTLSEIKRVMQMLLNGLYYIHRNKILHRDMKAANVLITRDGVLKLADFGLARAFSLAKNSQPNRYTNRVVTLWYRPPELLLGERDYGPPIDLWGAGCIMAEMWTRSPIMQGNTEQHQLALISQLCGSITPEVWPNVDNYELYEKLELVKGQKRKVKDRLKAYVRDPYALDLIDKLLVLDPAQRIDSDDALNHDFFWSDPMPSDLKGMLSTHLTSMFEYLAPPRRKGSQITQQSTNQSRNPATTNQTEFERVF
T30 sequence (O60563 whole entry partner): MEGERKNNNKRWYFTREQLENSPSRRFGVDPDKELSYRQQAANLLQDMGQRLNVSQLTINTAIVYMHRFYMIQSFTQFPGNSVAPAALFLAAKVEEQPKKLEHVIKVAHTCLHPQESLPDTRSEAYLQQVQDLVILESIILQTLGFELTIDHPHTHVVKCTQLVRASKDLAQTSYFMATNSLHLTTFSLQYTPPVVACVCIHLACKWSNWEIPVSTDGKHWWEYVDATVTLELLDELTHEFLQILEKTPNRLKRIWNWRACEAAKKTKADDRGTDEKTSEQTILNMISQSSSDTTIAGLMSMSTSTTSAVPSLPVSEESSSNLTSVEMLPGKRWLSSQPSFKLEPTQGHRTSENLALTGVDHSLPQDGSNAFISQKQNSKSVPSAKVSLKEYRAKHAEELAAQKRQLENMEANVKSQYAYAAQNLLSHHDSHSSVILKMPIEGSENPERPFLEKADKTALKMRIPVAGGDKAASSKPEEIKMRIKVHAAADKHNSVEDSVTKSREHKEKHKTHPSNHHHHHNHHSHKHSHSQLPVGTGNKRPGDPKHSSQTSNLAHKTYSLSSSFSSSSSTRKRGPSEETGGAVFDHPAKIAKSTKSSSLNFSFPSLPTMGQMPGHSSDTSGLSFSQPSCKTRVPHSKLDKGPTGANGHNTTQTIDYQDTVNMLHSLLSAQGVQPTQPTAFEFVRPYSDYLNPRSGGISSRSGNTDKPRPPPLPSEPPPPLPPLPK
T35 sequence (Q86Z02 whole entry): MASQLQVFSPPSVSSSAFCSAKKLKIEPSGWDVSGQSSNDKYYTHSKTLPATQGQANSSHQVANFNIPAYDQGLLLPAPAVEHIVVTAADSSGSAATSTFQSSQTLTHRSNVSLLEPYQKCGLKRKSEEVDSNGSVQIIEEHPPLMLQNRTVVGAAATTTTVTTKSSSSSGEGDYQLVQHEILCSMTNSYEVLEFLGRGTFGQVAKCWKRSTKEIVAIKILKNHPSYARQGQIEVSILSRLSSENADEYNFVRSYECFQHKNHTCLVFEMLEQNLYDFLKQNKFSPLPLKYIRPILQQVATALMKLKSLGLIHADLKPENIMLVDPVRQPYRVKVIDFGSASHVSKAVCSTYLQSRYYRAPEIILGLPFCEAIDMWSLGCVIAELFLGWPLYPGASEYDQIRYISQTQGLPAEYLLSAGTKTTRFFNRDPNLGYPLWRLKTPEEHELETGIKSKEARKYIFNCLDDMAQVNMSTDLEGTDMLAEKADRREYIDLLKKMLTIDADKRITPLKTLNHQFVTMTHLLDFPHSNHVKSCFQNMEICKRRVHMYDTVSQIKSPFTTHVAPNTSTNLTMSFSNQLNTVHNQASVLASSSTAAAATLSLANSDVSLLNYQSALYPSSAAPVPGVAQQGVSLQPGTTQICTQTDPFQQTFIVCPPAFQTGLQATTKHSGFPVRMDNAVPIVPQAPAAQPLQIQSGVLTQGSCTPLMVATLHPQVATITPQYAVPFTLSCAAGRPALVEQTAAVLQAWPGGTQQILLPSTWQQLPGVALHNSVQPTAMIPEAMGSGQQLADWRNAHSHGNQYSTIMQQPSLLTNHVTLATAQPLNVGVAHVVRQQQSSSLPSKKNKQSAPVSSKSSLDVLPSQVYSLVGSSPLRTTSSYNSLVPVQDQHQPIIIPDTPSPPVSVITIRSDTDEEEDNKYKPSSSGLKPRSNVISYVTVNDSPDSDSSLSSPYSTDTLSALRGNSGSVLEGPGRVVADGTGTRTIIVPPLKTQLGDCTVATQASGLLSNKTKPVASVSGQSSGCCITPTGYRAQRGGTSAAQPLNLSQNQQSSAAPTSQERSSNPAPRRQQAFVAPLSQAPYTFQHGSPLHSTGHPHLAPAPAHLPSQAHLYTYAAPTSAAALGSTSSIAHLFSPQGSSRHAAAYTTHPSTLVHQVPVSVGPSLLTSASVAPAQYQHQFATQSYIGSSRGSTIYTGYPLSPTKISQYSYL
T26 sequence (P04626 23-1255): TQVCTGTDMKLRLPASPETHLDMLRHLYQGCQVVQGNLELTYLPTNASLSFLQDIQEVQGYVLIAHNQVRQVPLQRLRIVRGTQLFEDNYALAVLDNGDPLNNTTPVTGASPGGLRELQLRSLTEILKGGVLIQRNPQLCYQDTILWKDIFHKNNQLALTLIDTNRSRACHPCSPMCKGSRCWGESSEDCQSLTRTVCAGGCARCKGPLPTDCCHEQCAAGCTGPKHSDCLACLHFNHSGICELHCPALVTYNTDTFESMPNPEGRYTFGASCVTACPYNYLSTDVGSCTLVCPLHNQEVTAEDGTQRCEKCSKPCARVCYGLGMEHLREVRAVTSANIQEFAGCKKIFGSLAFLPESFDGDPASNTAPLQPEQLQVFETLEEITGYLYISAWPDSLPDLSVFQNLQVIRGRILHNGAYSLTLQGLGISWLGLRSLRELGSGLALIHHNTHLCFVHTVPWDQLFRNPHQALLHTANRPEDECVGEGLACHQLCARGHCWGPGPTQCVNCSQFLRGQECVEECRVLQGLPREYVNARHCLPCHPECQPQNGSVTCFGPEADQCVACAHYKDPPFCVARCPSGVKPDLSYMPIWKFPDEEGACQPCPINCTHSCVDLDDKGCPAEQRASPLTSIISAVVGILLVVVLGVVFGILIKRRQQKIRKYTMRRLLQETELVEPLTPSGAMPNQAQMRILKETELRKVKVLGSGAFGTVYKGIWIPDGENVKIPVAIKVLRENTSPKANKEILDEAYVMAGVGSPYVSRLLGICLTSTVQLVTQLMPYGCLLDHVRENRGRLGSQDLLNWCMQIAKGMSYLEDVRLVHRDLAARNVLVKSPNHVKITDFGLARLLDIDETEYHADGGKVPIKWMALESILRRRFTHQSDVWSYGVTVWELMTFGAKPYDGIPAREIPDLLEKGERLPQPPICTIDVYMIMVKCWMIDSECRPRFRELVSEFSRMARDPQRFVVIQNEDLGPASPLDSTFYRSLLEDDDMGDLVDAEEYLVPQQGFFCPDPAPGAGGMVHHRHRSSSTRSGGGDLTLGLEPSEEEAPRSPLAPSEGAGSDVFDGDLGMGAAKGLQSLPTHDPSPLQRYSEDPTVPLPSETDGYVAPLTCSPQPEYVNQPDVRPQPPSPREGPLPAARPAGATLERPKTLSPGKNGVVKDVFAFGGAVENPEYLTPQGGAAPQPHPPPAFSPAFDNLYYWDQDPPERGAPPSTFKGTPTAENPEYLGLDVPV
T14 sequence (P36894 24-532): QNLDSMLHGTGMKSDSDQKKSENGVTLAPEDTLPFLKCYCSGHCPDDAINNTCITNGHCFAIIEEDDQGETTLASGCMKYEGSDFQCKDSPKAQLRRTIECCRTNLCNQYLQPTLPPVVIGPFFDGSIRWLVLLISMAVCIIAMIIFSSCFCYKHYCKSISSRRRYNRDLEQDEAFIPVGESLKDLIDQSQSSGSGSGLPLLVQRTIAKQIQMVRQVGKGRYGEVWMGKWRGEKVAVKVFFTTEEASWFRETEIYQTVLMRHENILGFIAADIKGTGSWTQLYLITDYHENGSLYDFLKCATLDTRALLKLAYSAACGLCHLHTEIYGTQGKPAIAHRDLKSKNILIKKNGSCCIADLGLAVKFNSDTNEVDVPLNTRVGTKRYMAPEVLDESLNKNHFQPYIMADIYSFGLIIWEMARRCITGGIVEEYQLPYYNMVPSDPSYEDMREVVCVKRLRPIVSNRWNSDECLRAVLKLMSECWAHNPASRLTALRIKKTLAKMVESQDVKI

## CCn1cnc2c(NCc3ccc(-c4ccccn4)nc3)nc(-c3ccc(N)nc3)nc21 [Compound 30d, N-([2,2′-Bipyridin]-5-ylmethyl)-2-(6-aminopyridin-3-yl)-9-ethyl-9H-purin-6-amine]
LYN
  remaining activity at 10 µM: 65.7%
SRPK2
  remaining activity at 10 µM: 60.7%
NEK4
  remaining activity at 10 µM: 95.8%
TAOK3
  remaining activity at 10 µM: 23.1%
GRK6
  remaining activity at 10 µM: 80.6%
DYRK4
  remaining activity at 10 µM: 89.3%
CAMKK1
  remaining activity at 10 µM: 18.7%
BLK
  remaining activity at 10 µM: 66.8%
MEKK6
  remaining activity at 10 µM: 109%
MAP4K2
  remaining activity at 10 µM: 58.4%
EPHA6
  inhibition at 10 µM: > 95%
  remaining activity at 10 µM: 3%
MLK3
  remaining activity at 10 µM: 51.4%
MELK
  remaining activity at 10 µM: 21.2%
BMPR1A
  remaining activity at 10 µM: 126%
CAMK4
  remaining activity at 10 µM: 95.2%
DYRK3
  remaining activity at 10 µM: 58.6%
FLT1
  remaining activity at 10 µM: 36.3%
EPHA2
  remaining activity at 10 µM: 42.3%
DAPK3
  remaining activity at 10 µM: 80.8%
ARK5
  remaining activity at 10 µM: 20.8%
SGK2
  remaining activity at 10 µM: 84.7%
ITK
  remaining activity at 10 µM: 81.7%
MST1
  remaining activity at 10 µM: 62.2%
SIK2
  remaining activity at 10 µM: 35.9%
PRKX
  remaining activity at 10 µM: 79.2%
ERBB2
  remaining activity at 10 µM: 74.2%
MYO3b
  remaining activity at 10 µM: 68.1%
LATS2
  remaining activity at 10 µM: 77.4%
DYRK2
  remaining activity at 10 µM: 22.3%
CDK9/cyclinT1
  inhibition at 10 µM: > 95%
  remaining activity at 10 µM: 0.8%
MAP4K4
  remaining activity at 10 µM: 103%
MNK1
  remaining activity at 10 µM: 89.3%
MST3
  remaining activity at 10 µM: 47%
AKT1
  remaining activity at 10 µM: 94.9%
HIPK1
  remaining activity at 10 µM: 93%
CAMK2a
  remaining activity at 10 µM: 64%
ERBB4
  remaining activity at 10 µM: 73%
PRKD1
  remaining activity at 10 µM: 70.3%
LTK
  remaining activity at 10 µM: 73.6%
RSK3
  remaining activity at 10 µM: 58.1%
STK16
  remaining activity at 10 µM: 35.9%
CAMK2b
  remaining activity at 10 µM: 65.2%
FAK
  remaining activity at 10 µM: 52.5%
AKT2
  remaining activity at 10 µM: 100%
